Data as given in patent US10584104B2, “Carboxylic acid URAT1 inhibitor containing diarylmethane structure, preparation method and use thereof” (TIANJIN INSTITUTE OF PHARMACEUTICAL RESEARCH CO., LTD., priority 2015, dated 2020).
pIC50: −log10 of the molar value. Like-named read-outs stand apart in the source and are kept apart here.

Tests used:
[1] = molecular target: T1, URAT1 (Homo sapiens (Human), UniProt Q96S37); assay: Inhibition of [8-14C] uric acid uptake by HEK293 cells stably expressing URAT1, test compounds at 10 μM; type: cell-based
T1 sequence (Q96S37 whole entry): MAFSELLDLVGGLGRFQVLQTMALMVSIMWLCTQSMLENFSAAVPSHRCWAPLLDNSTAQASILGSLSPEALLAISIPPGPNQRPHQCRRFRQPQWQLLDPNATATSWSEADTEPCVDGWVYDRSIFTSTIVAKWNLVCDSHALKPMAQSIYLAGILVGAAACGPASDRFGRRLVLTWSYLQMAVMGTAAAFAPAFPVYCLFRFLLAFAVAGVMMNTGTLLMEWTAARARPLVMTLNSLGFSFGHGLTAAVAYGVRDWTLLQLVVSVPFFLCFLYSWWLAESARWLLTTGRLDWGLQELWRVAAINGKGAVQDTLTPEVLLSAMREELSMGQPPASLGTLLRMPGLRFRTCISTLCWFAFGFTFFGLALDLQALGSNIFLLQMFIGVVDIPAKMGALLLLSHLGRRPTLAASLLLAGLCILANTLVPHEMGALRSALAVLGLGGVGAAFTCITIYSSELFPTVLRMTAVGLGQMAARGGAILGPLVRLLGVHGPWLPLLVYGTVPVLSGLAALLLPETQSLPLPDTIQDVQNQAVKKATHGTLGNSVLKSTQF
Description: (I) Inhibitory Experiment of the Test Compounds at a Concentration of 10 μM on URAT1 After trypsin digestion, the expression cells (HEK293) stably expressing URAT1 gene and mock cells were all inoculated into lysine-coated 24-well culture plates, with the cell inoculation density being 1×10^5 cells/well, and cultured in incubator at 37° C., 5% CO2 and saturated humidity for 2 days. […] After 2 min, the reaction was terminated with ice-bathed DPBS buffer solution and washing was carried out for three times. […]
wherein, control=the intensity of radioactivity corresponding to the well without the test compound test compound=the intensity of radioactivity corresponding to the well with the test compound mock=the intensity of radioactivity corresponding to the well of blank cells untransfected with URAT1

[2] = molecular target: T1, URAT1; assay: IC50 for inhibition of the test compounds on URAT1 (nine concentration points, 0.001-10 μM); details: HEK293 cells stably expressing URAT1; [8-14C] uric acid uptake; nine concentrations 0.001-10 μM
[3] = 10 μM test compound, HEK293 cells stably expressing URAT1, 30 μM [8-14C] uric acid, 2 min, read-out: Inhibition rate (%)
[4] = HEK293, read-out: Inhibition rate (%)
[5] = 10 μM test compound, HEK293 cells stably expressing URAT1, 30 μM [8-14C] uric acid, 2 min

| SMILES | inhibition at 10 µM [1, 3] [%] | other results |
| --- | --- | --- |
| O=C(O)CCc1nnc(Cl)n1Cc1ccc(C2CC2)c2ccccc12 [Compound of Example 34] | 88 | – |
| O=C(O)CCc1nncn1Cc1ccc(C2CC2)c2ccccc12 [Compound of Example 32] | 67 | – |
| Cc1ccc(Cn2c(Br)nnc2CC(C)(C)C(=O)O)c2ccccc12 [Compound of Example 46] | 84 | – |
| CC(C)(Cc1nnc(I)n1Cc1ccc(C2CC2)c2ccccc12)C(=O)O [Compound of Example 45] | 82 | – |
| CC(C)(Sc1nnc(Br)n1-c1ccc(C2CC2)c2ccccc12)C(=O)O [Compound A, reference compound] | – | inhibition at 10 µM [1, 4]: 55% |
| COc1ccc(Cn2c(Br)nnc2SC(C)(C)C(=O)O)c2ccccc12 [Compound of Example 31] | 84 | – |
| CC(C)(Sc1nnc(Br)n1Cc1ccc(C#N)c2ccccc12)C(=O)O [Compound of Example 29] | 89 | – |
| CCc1ccc(Cn2c(Br)nnc2CC(C)(C)C(=O)O)c2ccccc12 [Compound of Example 47] | 85 | – |
| O=C(O)CCc1nnc(Br)n1-c1ccc(C2CC2)c2ccccc12 [Compound B, reference compound] | – | inhibition at 10 µM [1, 4]: 50% |
| CCCc1ccc(Cn2c(Br)nnc2SC(C)(C)C(=O)O)c2ccccc12 [Compound of Example 25] | 80 | pIC50 [2]: 6.00 |
| CC(C)(Cc1nnc(Br)n1Cc1ccc(C#N)c2ccccc12)C(=O)O [Compound of Example 50] | 92 | – |
| O=C(O)CCc1nnc(Br)n1Cc1ccc(Br)c2ccccc12 [Compound of Example 52] | 93 | pIC50 [2]: 7.08 |
| CC(C)(Sc1nnc(Br)n1Cc1cccc2ccccc12)C(=O)O [Compound of Example 22] | 77 | – |
| Cc1ccc(Cn2c(Br)nnc2SC(C)(C)C(=O)O)c2ccccc12 [Compound of Example 23] | 83 | – |
| CCc1ccc(Cn2c(Br)nnc2SCC(=O)O)c2ccccc12 [Compound of Example 9] | 84 | – |
| Cc1ccc(Cn2c(Br)nnc2SCC(=O)O)c2ccccc12 [Compound of Example 8] | 83 | – |
| CC(C)c1ccc(Cn2c(Br)nnc2CC(C)(C)C(=O)O)c2ccccc12 [Compound of Example 49] | 93 | pIC50 [2]: 6.31 |
| O=C(O)CSc1nnc(Br)n1Cc1ccc(Cl)c2ccccc12 [Compound of Example 13] | 75 | – |
| N#Cc1ccc(Cn2c(Br)nnc2SCC(=O)O)c2ccccc12 [Compound of Example 14] | 84 | – |
| CC(C)(Sc1nnc(Br)n1Cc1ccc(F)c2ccccc12)C(=O)O [Compound of Example 27] | 83 | – |
| CCc1ccc(Cn2c(Br)nnc2CCC(=O)O)c2ccccc12 [Compound of Example 37] | 84 | – |
| O=C(O)CSc1nnc(Cl)n1Cc1ccc(C2CC2)c2ccccc12 [Compound of Example 5] | 76 | pIC50 [2]: 6.38 |
| O=C(O)CCc1nnc(I)n1Cc1ccc(C2CC2)c2ccccc12 [Compound of Example 35] | 84 | – |
| N#Cc1ccc(Cn2c(Br)nnc2CCC(=O)O)c2ccccc12 [Compound of Example 40] | 92 | – |
| CC(C)(Cc1nnc(Cl)n1Cc1ccc(C2CC2)c2ccccc12)C(=O)O [Compound of Example 44] | 81 | – |
| O=C(O)CSc1nnc(F)n1Cc1ccc(C2CC2)c2ccccc12 [Compound of Example 4] | 62 | – |
| COc1ccc(Cn2c(Br)nnc2SCC(=O)O)c2ccccc12 [Compound of Example 16] | 81 | – |

| SMILES | inhibition at 10 µM [1, 3] [%] | other results |
| --- | --- | --- |
| CC(C)(Sc1nnc(Br)n1Cc1ccc(Cl)c2ccccc12)C(=O)O [Compound of Example 28] | 77 | – |
| CCc1ccc(Cn2c(Br)nnc2SC(C)(C)C(=O)O)c2ccccc12 [Compound of Example 24] | 84 | – |
| CC(C)(Sc1nnc(I)n1Cc1ccc(C2CC2)c2ccccc12)C(=O)O [Compound of Example 21] | 82 | – |
| CC(C)(Sc1nncn1Cc1ccc(C2CC2)c2ccccc12)C(=O)O [Compound of Example 18] | 78 | – |
| O=C(O)CSc1nnc(Br)n1Cc1cccc2ccccc12 [Compound of Example 7] | 83 | – |
| O=C(O)CSc1nncn1Cc1ccc(C2CC2)c2ccccc12 [Compound of Example 3] | 60 | – |
| O=C(O)CSc1nnc(Br)n1Cc1ccc(C2CC2)c2ccccc12 [Compound of Example 1] | – | Inhibition rate (%) [1, 5]: 90%; pIC50 [2]: 6.70 |
| CCCc1ccc(Cn2c(Br)nnc2CC(C)(C)C(=O)O)c2ccccc12 [Compound of Example 48] | 85 | pIC50 [2]: 6.29 |
| CC(C)c1ccc(Cn2c(Br)nnc2CCC(=O)O)c2ccccc12 [Compound of Example 39] | 92 | pIC50 [2]: 6.42 |
| O=C(O)CSc1nnc(I)n1Cc1ccc(C2CC2)c2ccccc12 [Compound of Example 6] | 78 | pIC50 [2]: 6.36 |
| O=C(O)CSc1nnc(Br)n1Cc1ccc([N+](=O)[O-])c2ccccc12 [Compound of Example 15] | 70 | – |
| CC(C)(Sc1nnc(Br)n1Cc1ccc([N+](=O)[O-])c2ccccc12)C(=O)O [Compound of Example 30] | 81 | – |
| CC(C)(Cc1nnc(F)n1Cc1ccc(C2CC2)c2ccccc12)C(=O)O [Compound of Example 43] | 80 | – |
| CC(C)(Cc1nncn1Cc1ccc(C2CC2)c2ccccc12)C(=O)O [Compound of Example 42] | 71 | – |
| CCCc1ccc(Cn2c(Br)nnc2CCC(=O)O)c2ccccc12 [Compound of Example 38] | 86 | pIC50 [2]: 6.97 |
| CC(C)(Cc1nnc(Br)n1Cc1ccc(C2CC2)c2ccccc12)C(=O)O [Compound of Example 41] | 94 | – |
| CC(C)c1ccc(Cn2c(Br)nnc2SCC(=O)O)c2ccccc12 [Compound of Example 11] | 91 | pIC50 [2]: 6.32 |
| CC(C)(Sc1nnc(F)n1Cc1ccc(C2CC2)c2ccccc12)C(=O)O [Compound of Example 19] | 82 | – |
| O=C(O)CSc1nnc(Br)n1Cc1ccc(F)c2ccccc12 [Compound of Example 12] | 76 | – |
| CCCc1ccc(Cn2c(Br)nnc2SCC(=O)O)c2ccccc12 [Compound of Example 10] | 85 | pIC50 [2]: 7.03 |
| CC(C)(Sc1nnc(Br)n1Cc1ccc(C2CC2)c2ccccc12)C(=O)O [Compound of Example 17] | 93 | pIC50 [2]: 5.99 |
| O=C(O)CCc1nnc(Br)n1Cc1ccc(C2CC2)c2ccccc12 [Compound of Example 2] | – | Inhibition rate (%) [1, 5]: 91%; pIC50 [2]: 6.71 |
| Cc1ccc(Cn2c(Br)nnc2CCC(=O)O)c2ccccc12 [Compound of Example 36] | 82 | – |
| O=C(O)CCc1nnc(F)n1Cc1ccc(C2CC2)c2ccccc12 [Compound of Example 33] | 68 | – |
| CC(C)c1ccc(Cn2c(Br)nnc2SC(C)(C)C(=O)O)c2ccccc12 [Compound of Example 26] | 91 | – |
| CC(C)(Sc1nnc(Cl)n1Cc1ccc(C2CC2)c2ccccc12)C(=O)O [Compound of Example 20] | 86 | pIC50 [2]: 6.05 |
